Results reported in article PMC9600708 (Molecular cancer therapeutics, 2022).
“Also recorded” adds a separate entry of the source. Each block holds one molecule with its values, some of them ahead of it.

What was measured:
[1] = Plasma and tumor pharmacokinetics of OKI-005 in HCT-116 tumor-bearing mice; type: in vivo, BALB/c nude mice
[2] = Plasma persistence of OKI-006 across preclinical models; type: in vivo; details: depending on the dose and model (mouse vs. rat vs. dog)
[3] = tested on: HDAC-1; details: read-out: IC50 HDAC-1; cell-free biochemical assay, previously published; cited from earlier work
[4] = tested on: HDAC-2; details: read-out: IC50 HDAC-2; cell-free biochemical assay, previously published; cited from earlier work
[5] = tested on: HDAC-3; details: read-out: IC50 HDAC-3; cell-free biochemical assay, previously published; cited from earlier work
[6] = tested on: HDAC-8; details: read-out: IC50 HDAC-8; cell-free biochemical assay, previously published; cited from earlier work
[7] = tested on: HDAC-6; details: read-out: IC50 HDAC-6; cell-free biochemical assay, previously published; cited from earlier work
[8] = tested on: HDAC-4; details: read-out: IC50 HDAC-4; cell-free biochemical assay, previously published; cited from earlier work
[9] = tested on: HDAC-5; details: read-out: IC50 HDAC-5; cell-free biochemical assay, previously published; cited from earlier work
[10] = tested on: HDAC-7; details: read-out: IC50 HDAC-7; cell-free biochemical assay, previously published; cited from earlier work
[11] = tested on: HDAC-9; details: read-out: IC50 HDAC-9; cell-free biochemical assay, previously published; cited from earlier work
[12] = tested on: HCT-116 xenografts; assay: HCT-116 xenograft efficacy study; type: in vivo; details: for TGI compared to vehicle control: HCT-116 xenograft
[13] = tested on: MDA-MB-231 xenograft; assay: MDA-MB-231 xenograft efficacy study; type: in vivo, BALB/c nude mice; details: OKI-179 40-80 mg/kg PO daily, 120 mg PO every other day
[14] = tested on: acetylated histone H3; assay: MDA-MB-231 xenograft pharmacodynamics; type: in vivo, nude mice; details: OKI-179 40, 60 or 80 mg/kg PO daily x 3 or 10 days
[15] = tested on: advanced solid tumors; details: continuous dosing, patients with advanced solid tumors; cited from earlier work
[16] = tested on: MDA-MB-231 xenograft; details: addition of OKI-179 to nivolumab; cited from earlier work
[17] = tested on: MCF-7 xenograft; assay: MCF-7 xenograft, OKI-179 in combination with tamoxifen; details: OKI-179 60 mg/kg PO 5 days on 2 days off, tamoxifen 25 mg/kg SQ 3 times a week
[18] = tested on: CAL-120 cell line; assay: SRB proliferation assay; type: cell-based, human; details: read-out: IC50 proliferation; CAL-120, SRB, 72 hours
[19] = tested on: MDA-MB-231 cell line; assay: SRB proliferation assay; type: cell-based, human; details: read-out: IC50 proliferation; MDA-MB-231, SRB, 72 hours
[20] = tested on: HCC1395 cell line; assay: SRB proliferation assay; type: cell-based, human; details: read-out: IC50 proliferation, 72 hours
[21] = tested on: Hs578T cell line; assay: SRB proliferation assay; type: cell-based, human; details: read-out: IC50 proliferation, 72 hours
[22] = tested on: CAL-120 cells; assay: Cell cycle analysis; type: cell-based, human; details: CAL-120, 24 hours, 0-200 nM
[23] = tested on: sensitive and resistant TNBC cell lines; assay: Immunoblotting of protein acetylation and p21; type: cell-based, human; details: 24 hours, immunoblot
[24] = tested on: acetyl-histone H3 and acetyl H3K9; assay: HCT-116 xenograft pharmacodynamics; type: in vivo, BALB/c nude mice
[25] = tested on: luciferase-labeled MDA-MB-231 cells; assay: MDA-MB-231 luciferase-labeled metastasis model; type: in vivo, BALB/c nude mice; details: OKI-005 10 mg/kg IP 3 times a week for 30 days

persistence of plasma concentrations > 100 nM following a single dose [2]: 4 to 12 h
Structure (SMILES): CC(C)[C@@H]1NC(=O)C(C)(C)NC(=O)c2csc(n2)CNC(=O)C[C@@H](/C=C/CCS)OC1=O [OKI-006]
tumor concentrations versus plasma levels ([1]; OKI-006 after single dose of OKI-005 PO or IP): exceeded plasma levels at all time points | IC50 [3]: 1.2 nM | IC50 [4]: 2.4 nM | IC50 [5]: 2 nM | IC50 [6]: 47 nM | IC50 [7]: 47 nM | IC50 [8]: > 1000 nM | IC50 [9]: > 1000 nM | IC50 [10]: > 1000 nM | IC50 [11]: > 1000 nM

Structure (SMILES): CC(C)[C@H](N)C(=O)SCC/C=C/[C@@H]1CC(=O)NCc2nc(cs2)C(=O)NC(C)(C)C(=O)N[C@@H](C(C)C)C(=O)O1 [OKI-179]
body weight / tolerability ([12]; OKI-179 100 mg/kg oral daily, animals): weight loss | tumor growth at day 24 ([12]; OKI-179 40-80 mg/kg PO daily and 120 mg PO every other day, all doses and schedules): statistically significant decreased tumor growth | tumor growth inhibition [13]: statistically significant tumor growth inhibition at higher doses | acetylated histone H3 in tumor [14]: increase in acetylated histone H3 | dose-limiting toxicity [15]: dose-limiting thrombocytopenia | tumor growth inhibition and T-cell activation [16]: improved tumor growth inhibition and increased T-cell activation | tumor growth inhibition [17]: active

Structure (SMILES): CC/C(=C(\c1ccccc1)c1ccc(OCCN(C)C)cc1)c1ccccc1 [tamoxifen, reference compound]
tumor growth inhibition [17]: active

Structure (SMILES): CCCCCCCC(=O)SCC/C=C/[C@@H]1CC(=O)NCc2nc(cs2)C(=O)NC(C)(C)C(=O)N[C@@H](C(C)C)C(=O)O1 [OKI-005]
IC50 [18]: < 100 nM | IC50 [19]: < 100 nM | IC50 [20]: > 500 nM | IC50 [21]: > 500 nM | cell cycle effect (G1 and S phase fraction) [22]: trend towards an increase in G1 and a decrease in the cell fraction in S phase | acetylated histone-H3 and p21 ([23]; 0-500 nM): concentration-dependent increase | acetylated α-tubulin ([23]; highest dose levels): small increase | TGI compared to vehicle control ([12]; OKI-005 30 mg/kg, P = 0.025): 28.1% | body weight / tolerability ([12]; OKI-005 100 mg/kg PO daily, mice, 100 mg/kg): weight loss related to treatment requiring dose reduction; also recorded: dose-limiting treatment-related toxicity | TGI compared to vehicle control ([12]; OKI-005 100 mg/kg, P < 0.001): 75.6% | acetyl-histone H3 and acetyl H3K9 in tumor ([24]; 1 hour post-dose, HCT-116 xenograft): dose-dependent increase | time of highest acetyl-Histone H3 and acetyl H3K9 levels post-treatment ([24]; OKI-005 100 mg/kg): 4 h | time of return of acetyl-Histone H3 and acetyl H3K9 to baseline post-dose ([24]; OKI-005 100 mg/kg): 24 h | half-life in plasma ([1]; PO dosing of OKI-005, metabolite OKI-006 measured, HCT-116 tumor-bearing mice): < 2 h | primary tumor growth and metastasis (number of thoracic metastasis) [25]: statistically significant inhibition
